Key:
primary mouse myoblasts [1] = assay: Fusion index of primary mouse myoblasts (MyHC immunostaining); format: cell-based; details: first passage mouse primary myoblasts, 24 hours; 1 μM ERKi in growth medium vs. DM
Protocol: Isolation of and treatment of primary myoblasts. Primary mouse myoblasts were isolated from gastrocnemius muscle using trypsin-tissue dissociation. Briefly, muscle tissues were incubated in Trypsin B (0.25%, Biological Industries) and subjected to mechanical dissociation with a serological pipet. Supernatants were strained and centrifuged. Pellets were grown resuspended in BioAmf-2 media (Biological Industries, Israel) and plated on 10% Matrigel (BD Biosciences)-coated plates at 37° and 5% CO2. For all in vitro experiments, proliferation medium was Bio-Amf2 (Biological Industries, Israel) and Differentiation medium (DM) was DMEM 2% Horse Serum (HS) with 1% Pen/Strep. For fusion assays, cells were trypsinized with Trypsin C (0.05%, Biological Industries) and subjected to two rounds of preplating on uncoated plates to reduce the number of fibroblasts. Cells were plated at a density of 8×10^3 per well in 10% Matrigel-coated 96-well plates in proliferation medium for 24 hours. The following day, proliferation media was replaced either with proliferation media or with DM containing DMSO (Ctrl) or 1 μM ERK1/2 inhibitor (ERKi; SCH772984, Cayman Chemicals), […] RXR antagonist (RXRi; HX-531, Cayman Chemicals), […] Ryanodine receptor antagonist (RYRi; Dantrolene, Cayman Chemicals), 5 μM CaMKII inhibitor (CaMKIIi; KN93, Cayman Chemicals), or with DM for controls.
(§1) Immunofluorescence staining. First passage primary myoblasts isolated from various strains (indicated in figure legends) were plated in 96-well plates or chamber slides and treated as previously described. The cells were fixed with ice cold 4% PFA in PBS for 10 minutes, permeabilized with 0.5% Triton X-100 in PBS for 6 minutes, and blocked in PBS with 0.025% tween, 10% normal horse serum and 10% normal goat serum for 1 hour at room temperature. Primary antibody incubation was done in blocking buffer overnight at 4 degrees, with the following antibodies: Myosin Heavy Chain (MyHC, MF20, DSHB hybridoma supernatant 1:10, or MY-32 ABCAM ab51263 1:400), Myogenin (MYOG sc-13137 SCBT 1:200), pHistone 3 (PH3, ab47297 ABCAM 1:1000), Ki-67 (Cell Marque #275R), RYR (ab2868 ABCAM 1:100), and pCaMKII (SIGMA SAB4504356 1:100). Cells were washed 3 times in PBS with 0.025% tween and then incubated with appropriate secondary antibodies in PBS 1 hour. Where indicated, nuclei were either labeled with DAPI (SIGMA D9542, 5 ug/ml) or Hoechst 33342 (Thermo scientific #62249, 1:2000). Fixed cells at 24 hours post treatment with indicated inhibitors were imaged using the Nikon Eclipse Ti2 microscope (further described in microscopy section). All analysis was performed on at least 1000 nuclei. […]
Quantification of fusion index. Following immunostaining and imaging, a fusion index was quantified by manually identifying nuclei found in a MyHC positive cell with at least 2 nuclei. Then the values were expressed as a percentage of the total nuclei per field. Briefly, in Figures where fusion index is stratified into subgroups of fiber size, the nuclei number in MyHC positive cell was manually quantified in a given field and stratified into groups of mononucleated, bi-nucleated myotubes, myotubes with 3-10 nuclei and myotubes with greater than 10 nuclei. […] Fields were analyzed hourly, and nuclei per cell was quantified and stratified into mononucleated, bi-nucleated, tri-nucleated and cells with ≥4 nuclei.

primary mouse myoblasts [2] = assay: Proliferation markers KI-67 and pH3 staining in primary mouse myoblasts; format: cell-based; details: 1 μM ERKi, 24 hours
Protocol: as §1

CaMKII = assay: Western blot of CaMKII activation (p-CaMKII T287) in myoblasts; format: cell-based, mouse
Protocol: Western Blot analysis. Cultured cells and whole tissues extracts were prepared with RIPA buffer supplemented with protease inhibitor cocktail (SIGMA P8340), and phosphatase inhibitor cocktails (SIGMA P5726 and P0044). Western blotting was performed using the Mini-PROTEAN Tetra Cell electrophoresis system, and transferred to PVDF membranes. The following primary antibodies concentrations were used p-CAMKII 1:1000 (Abcam ab182647), CaMKII 1:1000 (Cell Signaling 3362), GAPDH 1:10,000 (Abcam ab181602), p-ERK1/2 1:20,000 (SIGMA M9692), ERK1/2 1:40,000 (SIGMA), Myosin Heavy Chain (MF-20 DSHB hybridoma supernatant 1:100) Horseradish peroxidase conjugated secondary anti-mouse, anti-rabbit or anti-goat was used to detect proteins (Jackson Immunology). Western blots were imaged using the Chemidoc Multiplex system (Bio-rad).

chicken myoblasts = assay: qRT-PCR gene expression in chicken myoblasts; format: cell-based
Protocol: Quantitative real-time PCR (qRT-PCR). Total RNA was isolated using Tri-Reagent (SIGMA) according to the manufacturer's instructions. cDNA was synthesized with the High Capacity cDNA Reverse Transcription Kit (Applied Biosystems according to the manufacturer's instructions. qRT-PCR was performed with SYBR green PCR Master Mix (Applied Biosystems) using the StepOnePlus Real-time PCR system (Applied Biosystems). Values for specific genes were normalize to either Gapdh or Hprt housekeeping control as indicated in Figure legend. Expression was calculated using the ddCT method.
Chicken primary derived myoblasts were used as a model to evaluate the efficiency of SCH772984 as the ERKi, compared to conventional differentiation medium (DM) for the purpose of producing muscle (meat) in tissue culture conditions. Chicken myoblasts were isolated from chicken embryos and expanded in proliferation medium. When sufficient cell numbers were acquired, cells were seeded on tissue culture plates and allowed to adhere for 24 hours. Then medium was changed to either PM supplemented with ERKi or DM. At 24-hours post treatment, the cells that received ERKi were replenished with fresh PM (without the addition of more ERKi), and DM treated cells were replenished with fresh DM. Media was replaced daily over a period of 72 hours.

O=C(Nc1ccc2[nH]nc(-c3ccncc3)c2c1)[C@@H]1CCN(CC(=O)N2CCN(c3ccc(-c4ncccn4)cc3)CC2)C1 [SCH772984]
Fusion index (fraction of nuclei in differentiated MyHC+ cells) (primary mouse myoblasts [1]): 90.5% | Cell cycle (KI-67 and phosphorylated Histone 3 staining) (primary mouse myoblasts [2]): undergo cell-cycle arrest | Time of CaMKII activation post ERKi treatment (CaMKII; 1 μM ERKi time-course): ≤ 16 h | CaMKII activation (p-CaMKII T287) (CaMKII; treatment of myoblasts with ERKi, 24 hours): activated | Gene expression of maturation/differentiation markers mrf4, myh1, myh2, tnnt3 compared with DM (chicken myoblasts): elevated gene expression | Downregulation of Myf5 expression compared to DM (chicken myoblasts; 72 hour timecourse): stronger across all time points | Pax7 RNA expression (chicken myoblasts; 72 hour timecourse): reduction

Reference: patent US20240074473A1, “METHOD FOR INDUCING HYPERTROPHIC MUSCLE FIBERS FOR INDUSTRIAL MEAT PRODUCTION” (Yeda Research and Development Co. Ltd., priority 2021, published 2024)
